Results published in ChEMBL document CHEMBL1201862, “PubChem BioAssay data set” (2004).
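Grown in 96-well plates, cells were treated for 48 hours with each compound at five concentrations. Insufficient inhibition: endpoint recorded as highest concentration tested. The concentration for 50% growth inhibition is given as GI50.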 Active and inactive are the calls of the source. Cut-off read from the data, not from the text of the source: active = GI50 up to about 1.1 µM and inactive = higher.

Experiments:
Test in all cases: NCI tumour cell line growth inhibition, 48 h
[1] = tested on: SF-268
[2] = tested on: DMS-273
[3] = tested on: TK-10
[4] = tested on: SW-620
[5] = tested on: OVCAR-4
[6] = tested on: HL-60
[7] = tested on: M14
[8] = tested on: SNB-75
[9] = tested on: KM12
[10] = tested on: SF-295
[11] = tested on: SK-MEL-2
[12] = tested on: UO-31
[13] = tested on: NCI-H23
[14] = tested on: SN12C
[15] = tested on: 786-0
[16] = tested on: CCRF-CEM
[17] = tested on: PC-3
[18] = tested on: DU-145
[19] = tested on: MDA-N
[20] = tested on: BT-549

Measured: GI50

COc1ccc(C(=O)C2=NON3OC23C(=O)c2ccc(OC)cc2)cc1 (configuration not stated)
inactive: [1] 18.8 µM | [2] 19.1 µM | [3] 19.7 µM | [4] 3.31 µM | [5] 5.74 µM | [6] 2.18 µM | [7] 15.4 µM | [8] 24.7 µM | [9] 19.2 µM | [10] 19.2 µM | [11] 19.5 µM | [12] 14.1 µM | [13] 13.2 µM | [14] 15.3 µM | [15] 3.44 µM | [16] 2.34 µM

N#CC(NNC(=O)Cc1ccccc1)c1ccccc1O (configuration not stated)
inactive: [1] 9.04 µM | [2] 6.59 µM | [3] 24.2 µM | [4] 10.2 µM | [5] 11.8 µM | [17] 5.79 µM | [6] 3.35 µM | [7] 10.5 µM | [8] 21.3 µM | [9] 11.6 µM | [18] 20.8 µM | [10] 9.68 µM | [19] 19.4 µM | [11] 30.3 µM | [12] 4.54 µM | [20] 21 µM | [13] 9.23 µM | [14] 23.3 µM | [15] 8.75 µM | [16] 4 µM

CCOC1=C2C(C)(CCC3[C@@]4(C)C=CC(=O)C(C)(C)C4CC(O)[C@@]23C)C(c2ccoc2)C1=O (some centres not stated)
inactive: [1] 24.2 µM | [2] 25.2 µM | [3] 25.2 µM | [4] 17.2 µM | [5] 17.2 µM | [6] 14.4 µM | [7] 21.8 µM | [8] 54.3 µM | [9] 15.2 µM | [10] 12.8 µM | [11] 19.2 µM | [12] 14.5 µM | [13] 13.1 µM | [14] 25.1 µM | [15] 15.3 µM | [16] 7.93 µM
